This passage reports TGI and GI50 results from PubChem BioAssay (NCI).

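Cells were grown in 96-well plates and exposed to each compound for 48 hours at five concentrations; endpoints were interpolated linearly between bracketing concentrations, or set to the highest concentration if not reached. Abbreviation: GI50, concentration required for 50% inhibition of growth. TGI: total growth inhibition.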 A value given as a limit tells only on which side of the number the result lay.

What all share (assay): NCI anticancer screen, dose series, 48 h
Assay [1] deals with HOP-62 NSCLC.
The subject of assay [2] is EKVX NSCLC.
The test system of assay [3] is RPMI-8226 leukemia.
Assay [4] deals with MALME-3M melanoma.
Assay [5] has as its system COLO 205 colon.
Assay [6] relates to U251 CNS.
Assay [7] concerns NCI-H460 lung.
For assay [8], the system named is HCC-2998 colon.
The subject of assay [9] is TK-10 renal.

`O=C(c1ccccc1)C1N=NN(Cc2ccccc2[N+](=O)[O-])C1C(=O)c1ccccc1` (centres undefined): the TGI in [1], in [2], in assay [3], in assay [4], in assay [5] and in [6] was > 100 µM each time. Besides, the TGI in [7], in assay [8] and in [9] was > 100 µM in each case.
For `Cc1ccccc1NC(=O)CSc1nnc(-c2ccc(N=Cc3ccc(Cl)cc3)cc2)o1`, the TGI in assay [1], in [2], in assay [3], in assay [4], in assay [5] and in assay [6] was > 100 µM in each case. The TGI in assay [7] and in assay [9] was > 100 µM each time.
`Cc1nnc2n1N=C(c1ccccc1)C(c1ccccc1)S2` (centres undefined): the TGI in assay [1] was > 100 µM; in [2], > 100 µM; in assay [3], > 100 µM; in assay [4], > 100 µM; in assay [5], 41.8 µM; in assay [6], 72 µM. Moreover, the TGI in assay [7], in assay [8] and in [9] was > 100 µM in each case.
With `COc1ccc2[nH]c(C(=O)N3CCN(C(=O)OCc4ccc5c(Cl)cc(Cl)c(O)c5n4)CC3)cc2c1`, the GI50 in assay [1] is 1.56 µM; in assay [2], 1.61 µM; in assay [3], 0.281 µM; in assay [4], 1.59 µM; in [5], 0.85 µM; in [6] it was 1.48 µM. The values for the GI50 in [7], in assay [8] and in [9] were 1.18 µM, 1.7 µM and 1.42 µM, respectively. Besides, the TGI in assay [1] amounted to 3.36 µM; in [2], 2.97 µM; in assay [3], 0.962 µM; in [4], 3.02 µM; in [5], 2.48 µM; in [6], 2.81 µM. The values for the TGI in assay [7], in [8] and in assay [9] were 2.76 µM, 3.32 µM and 2.72 µM, respectively.
For the compound `O=C1CC23CCCCCCCCCCC2(C1)CC(=O)C3` (centres undefined), the TGI is > 100 µM in assay [2]; 45.4 µM in [3]; 76.1 µM in assay [4]; 33.5 µM in assay [5]; 75.6 µM in assay [6]; > 100 µM in assay [7]. Moreover, the TGI in assay [8] and in assay [9] was > 100 µM throughout.
For the compound `Cc1cc2c(c(C(=O)O)c1C)-c1cccc(Cl)c1C2=O`, the TGI in [1], in assay [2], in assay [3], in assay [4], in assay [5] and in assay [6] was > 100 µM in each case. Further, the TGI in assay [7], in assay [8] and in assay [9] was > 100 µM each time.
On to `CN(C)C(=S)/N=c1\ss/c(=N\C(=S)N(C)C)n1-c1cccc(Cl)c1`, for which the TGI in assay [1], in assay [2], in assay [3], in assay [4], in assay [5] and in assay [6] was > 100 µM throughout. In addition, the TGI in [7], in [8] and in assay [9] was > 100 µM in each case.
Consider `CCC[CH2][Sn-]([CH2]CCC)([CH2]CCC)[O]C(=O)C(C)C`, for which the GI50 in assay [1] was 0.157 µM; in assay [2], 0.154 µM; in assay [3], 0.109 µM; in [4], 0.0229 µM; in [5], 0.13 µM; in assay [6], 0.144 µM. In addition, the results for the GI50 in [7], in assay [8] and in assay [9] were 0.0571 µM, 0.164 µM and 0.141 µM, respectively. Moreover, the TGI in assay [1] is 0.297 µM; in [2] it was 0.362 µM; in assay [3], 0.366 µM; in assay [4] it was 0.204 µM; in [5] it was 0.274 µM; in [6] it was 0.294 µM. In addition, the TGI in [7] was 0.197 µM; in [8], 0.329 µM; in assay [9], 0.272 µM.
In the case of `O=C(CC1=Nc2nnc(CCCCCCCc3nnc4n3C(=O)C(CC(=O)c3ccc5ccccc5c3)=N4)n2C1=O)c1ccc2ccccc2c1`, the TGI in assay [1], in [2], in [3], in assay [4], in [5] and in [6] was > 100 µM throughout. Further, the TGI in [7], in assay [8] and in [9] was > 100 µM throughout.
On to `COC(=O)C1CC(c2ccc(OC)c(OC)c2)OC1=O` (mixture of isomers), for which the TGI in assay [1], in assay [2], in assay [3], in assay [4], in [5] and in assay [6] was > 100 µM each time. Besides, the TGI in assay [7], in [8] and in [9] was > 100 µM each time.
Regarding `CCOc1ccc(NC(=O)/C(CC(=O)c2c[n+](=O)c3ccccc3n2[O-])=N\OCCCc2ccccc2)cc1`, the TGI in [1], in assay [2], in assay [3], in assay [4], in assay [5] and in assay [6] was > 100 µM each time. The TGI in assay [7], in [8] and in assay [9] was > 100 µM each time.
For the compound `C/C(=N/NC(=S)Nc1ccccc1)c1nc2ccc(Cl)cc2[nH]1`, the GI50 was 0.101 µM in assay [1]; 0.1 µM in assay [2]; 0.202 µM in [3]; 0.0737 µM in assay [4]; 0.0996 µM in assay [6]; 0.0351 µM in [7]. The GI50 is 0.135 µM in assay [8] and 0.539 µM in [9]. Also, the TGI in assay [1] turned out to be 0.935 µM; in assay [2], 0.959 µM; in assay [3] it was 3.36 µM; in assay [4], 0.401 µM; in [6], 1.02 µM; in assay [7], 0.522 µM. For the same compound, the TGI in [8] came to 0.725 µM; in [9], 2.61 µM.
With `CC(C)(C)C#COC(=O)c1ccccc1`, the TGI in assay [1], in assay [2], in assay [3], in assay [4], in [5] and in assay [6] was > 100 µM in each case. Moreover, the TGI in assay [7] and in assay [8] was > 100 µM throughout.
`CC(=O)Nc1ccc(C2CC(c3ccc([N+](=O)[O-])cc3)=Nc3ccccc3S2)cc1` (centres undefined): the TGI was 50.8 µM in assay [1]; > 100 µM in [2]; 35.1 µM in [4]; > 100 µM in assay [5]; 29.8 µM in [6]; 34.3 µM in [7]. Further, the TGI in assay [9] worked out at 44.4 µM.
With `c1cnc2c(c1)-n1cccc1C1(CCCCC1)NN2`, the TGI in assay [1], in [2], in assay [3], in assay [4], in assay [5] and in [7] was > 100 µM each time. Besides, the TGI in assay [8] and in [9] was > 100 µM throughout.
Take `CN1CCCC2[C@@H]3CCC4c5nonc5CC[C@]4(C)C3CC[C@@]21C` (some centres undefined): the TGI in assay [2], in assay [3], in assay [4], in assay [5], in [6] and in assay [7] was > 100 µM in each case. For the same compound, in [9], the TGI is > 100 µM.
In the case of `CC(=O)[CH-]C(C)=O.CC(=O)[CH-]C(C)=O.[O-]c1ccccc1.[O-]c1ccccc1.[Ti+4]`, the GI50 in [2], in assay [3], in assay [4], in assay [5], in assay [6] and in assay [7] was > 100 µM throughout. Besides, the GI50 in [8] and in assay [9] was > 100 µM in each case. Further, the TGI in assay [2], in [3], in [4], in [5], in assay [6] and in assay [7] was > 100 µM each time. The TGI in assay [8] and in [9] was > 100 µM each time.
Turning to `O=c1c(Cc2ccccc2)c(O)cc2n1CCC2`, the TGI in assay [1], in assay [2], in assay [3], in [4], in [5] and in assay [6] was > 100 µM each time. The TGI in [7], in assay [8] and in assay [9] was > 100 µM in each case.
`O=c1[nH]ccc(CNC23CC4CC(CC(C4)C2)C3)c1O`: the TGI in assay [1], in [2], in assay [3], in assay [4], in [5] and in assay [6] was > 100 µM in each case. Besides, the TGI in assay [7], in [8] and in assay [9] was > 100 µM throughout.
On to `COc1ccc(-c2nc3ccccc3s2)cc1OC`, for which the TGI in [1] is > 100 µM; in assay [3], > 100 µM; in [5], > 100 µM; in assay [6], > 100 µM; in assay [7], 59.8 µM.
Consider `O=C1NC(O)n2c(=O)[nH]c(=O)n21` (centres undefined), for which the TGI in assay [1], in assay [2], in assay [3], in assay [5], in assay [6] and in [7] was > 100 µM each time. The TGI in [8] and in assay [9] was > 100 µM in each case.
As for `CCN(CC)C(=S)SSC(C)C`, the GI50 in [1] is 24.7 µM; in assay [2] it was 27.4 µM; in [3] it was 1.94 µM; in assay [4] it was 13.7 µM; in [5], 0.0412 µM; in assay [6], 13.8 µM. In addition, the GI50 in assay [8] was 16.8 µM; in assay [9], 20.3 µM. In addition, the TGI was found to be 86.7 µM in [1]; 70.4 µM in [2]; 18.4 µM in assay [3]; 30 µM in [4]; 20.6 µM in assay [5]; 32.1 µM in assay [6]. The TGI is 31.1 µM in [8] and 38 µM in [9].
Take `COc1cc(C)c2c(c1)CN1CN2Cc2cc(OC)cc(C)c21`: the TGI in assay [1], in assay [2], in [3], in [4], in assay [5] and in assay [6] was > 100 µM throughout. In addition, the TGI in assay [7] was > 100 µM.
As for `Cc1ccc(C2=CC(=O)c3ccccc3C2=O)n1-c1ccccc1`, the TGI in assay [1], in [2], in assay [3], in assay [5], in [6] and in assay [7] was > 100 µM in each case. For the same compound, the TGI in assay [8] and in assay [9] was > 100 µM in each case.
In the case of `O=c1c2cccnc2ncn1CCCN1CCCCC1`, the TGI in [1], in [2], in assay [4], in [5], in assay [6] and in assay [7] was > 100 µM throughout. Further, the TGI in assay [9] is > 100 µM.
In the case of `COc1ccc(-c2ccc(CC(=O)O)cc2)cc1OC`, the TGI in [1], in assay [2], in assay [3], in assay [4], in assay [5] and in [6] was > 100 µM each time. Also, the TGI in assay [7] and in assay [9] was > 100 µM in each case.
For `N/N=C(/Cc1ccccc1)NNO`, the TGI in assay [2], in assay [4], in assay [5], in assay [7], in [8] and in assay [9] was > 100 µM in each case.
For `C1=CC(=P(c2ccccc2)(c2ccccc2)c2ccccc2)C=C1`, the TGI in assay [1] was determined as 41.6 µM; in [2], 82.5 µM; in [3], 11 µM; in assay [4], 17.4 µM; in [5] it was 14.8 µM; in [7], 26 µM. Further, the results for the TGI in [8] and in assay [9] were 24.3 µM and 50.9 µM, respectively.
Take `CC(=O)N1[C@H](C(=O)O)CS[C@H]1c1ccc(F)cc1`: the TGI in [1], in assay [4], in [5], in assay [7], in assay [8] and in assay [9] was > 100 µM in each case.
